Source: publication PMC12714728, “VHH antibody loop guides design of a synthetic macrocyclic peptide that potently blocks influenza virus membrane fusion” (npj Viruses, 2025)
Several values for one entry are separate records, joined by “and”; a condition that tells them apart may be missing. Equal values may be shown once. Read-outs that look alike come from different tables or passages of the source.

Key:
[1] = tested on: H1/Cal HA (A/California/07/2009 (H1N1)); type: binding, influenza A virus
[2] = biological target: H3N2 A/Hong Kong/1/1968 HA (Influenza A virus, UniProt Q91MA7); type: binding
[3] = tested on: H5/Viet HA (A/Vietnam/1203/2004 (H5N1)); type: binding, influenza A virus
[4] = biological target: H10N7 A/chicken/Germany/N/1949 HA (Influenza A virus, UniProt P12581); type: binding
[5] = tested on: H5/Viet HA (H5N1 A/Vietnam/1203/2004); type: binding, influenza A virus
[6] = tested on: H1/NCa HA (A/New Caledonia/20/1999 (H1N1)); type: binding, influenza A virus
[7] = tested on: group 2 or influenza B HAs; type: binding, influenza A and B viruses
[8] = biological target: H7N7 A/Netherlands/219/2003 HA; type: binding, influenza A virus
[9] = tested on: H1/Cal HA (H1N1 A/California/07/2009); type: binding, influenza A virus
[10] = biological target: H11N6 A/duck/England/1/1956 HA; type: binding, influenza A virus
[11] = tested on: H1N1 A/Brisbane/59/2007 (H1/Bri) HA; type: biochemical, influenza A virus; details: pH 5.25
[12] = biological target: H14N5 A/mallard/Astrakhan/263/1982 HA (Influenza A virus, UniProt P26136); type: binding
[13] = biological target: H1/NCa HA (H1N1 A/New Caledonia/20/1999); type: binding, influenza A virus
[14] = biological target: B/Brisbane/33/2008 HA (Victoria lineage); type: binding, influenza B virus
[15] = biological target: H16N3 A/black-headed gull/Sweden/4/1999 HA; type: binding, influenza A virus
H2N2 A/Adachi/2/1957 HA = type: binding, influenza A virus
[16] = tested on: group 1 H1/Cal, H1/NCa, and H5/Viet HAs; type: binding, influenza A virus
[17] = biological target: H1N1 A/Solomon Islands/3/2006 HA; type: binding, influenza A virus
[18] = biological target: H9N2 A/turkey/Wisconsin/1/1966 HA; type: binding, influenza A virus
[19] = tested on: H5/Viet virus (A/Vietnam/1203/2004 (H5N1))
[20] = biological target: H6N2 A/turkey/Massachusetts/3740/1965 HA; type: binding, influenza A virus
[21] = biological target: H12N5 A/duck/Alberta/60/1976 HA; type: binding, influenza A virus
[22] = In vitro cell permeability / P-gp substrate assay; details: for Papp A→B: LLC-PK1, Papp AB, LLC-MDR1, apical to basolateral; for Papp B→A: LLC-PK1, Papp BA, LLC-MDR1, basolateral to apical
[23] = tested on: group 1 H1/Cal, H1/NCa, and H5/Viet HAs; type: binding, influenza A virus; remark: listed apart in the source
[24] = biological target: H15N9 A/shearwater/W. Australia/2576/79 HA; type: binding, influenza A virus
[25] = biological target: T1, H1/PR8 HA (A/Puerto Rico/8/1934 (H1N1)) (Influenza A virus, UniProt P03452); test: Trypsin susceptibility (TS) assay; type: biochemical; details: pH 5.0; 50 μM CP1 or 10 μM CR9114 Fab, 5 μM HA
T1 construct: The HA ectodomain was expressed using a baculovirus expression system in Sf9 cells; gp67 signal peptide (N); thrombin site (C); BirA biotinylation site (C); trimerization domain (C); His-tag (C); made in house; host or cells: Sf9 cells (baculovirus)

[26] = biological target: H3N2 A/Victoria/361/2011 HA; type: binding, influenza A virus
[27] = biological target: H1N1 A/duck/Alberta/345/1976 HA; type: binding, influenza A virus
[28] = biological target: B/Massachusetts/02/2012 HA (Yamagata lineage); type: binding, influenza B virus
[29] = biological target: H4N6 A/duck/Czechoslovakia/1956 HA (Influenza A virus, UniProt P19696); type: binding
[30] = In vitro cell permeability assay; details: for efflux ratio: LLC-PK1, Efflux ratio BA/AB; for efflux ratio / Papp B→A: LLC-Parent; for Papp B→A: LLC-PK1, Papp BA, basolateral to apical

Chain of H14N5 A/mallard/Astrakhan/263/1982 HA (P26136 18-531 limits assumed): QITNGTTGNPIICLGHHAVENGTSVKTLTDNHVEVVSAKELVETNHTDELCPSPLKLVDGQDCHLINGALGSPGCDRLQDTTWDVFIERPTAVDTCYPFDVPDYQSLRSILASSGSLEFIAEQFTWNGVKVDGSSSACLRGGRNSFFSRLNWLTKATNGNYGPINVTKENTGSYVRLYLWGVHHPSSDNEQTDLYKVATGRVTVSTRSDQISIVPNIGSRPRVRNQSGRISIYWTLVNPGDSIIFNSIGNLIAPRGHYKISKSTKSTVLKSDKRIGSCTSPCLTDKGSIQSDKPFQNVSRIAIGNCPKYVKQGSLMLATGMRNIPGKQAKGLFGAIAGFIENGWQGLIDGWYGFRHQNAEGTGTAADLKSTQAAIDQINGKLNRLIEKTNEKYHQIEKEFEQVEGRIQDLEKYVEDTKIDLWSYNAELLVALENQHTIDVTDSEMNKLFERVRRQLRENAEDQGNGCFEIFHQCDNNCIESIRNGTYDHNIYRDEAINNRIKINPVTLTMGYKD
Chain of H3N2 A/Hong Kong/1/1968 HA (Q91MA7 17-530 limits assumed): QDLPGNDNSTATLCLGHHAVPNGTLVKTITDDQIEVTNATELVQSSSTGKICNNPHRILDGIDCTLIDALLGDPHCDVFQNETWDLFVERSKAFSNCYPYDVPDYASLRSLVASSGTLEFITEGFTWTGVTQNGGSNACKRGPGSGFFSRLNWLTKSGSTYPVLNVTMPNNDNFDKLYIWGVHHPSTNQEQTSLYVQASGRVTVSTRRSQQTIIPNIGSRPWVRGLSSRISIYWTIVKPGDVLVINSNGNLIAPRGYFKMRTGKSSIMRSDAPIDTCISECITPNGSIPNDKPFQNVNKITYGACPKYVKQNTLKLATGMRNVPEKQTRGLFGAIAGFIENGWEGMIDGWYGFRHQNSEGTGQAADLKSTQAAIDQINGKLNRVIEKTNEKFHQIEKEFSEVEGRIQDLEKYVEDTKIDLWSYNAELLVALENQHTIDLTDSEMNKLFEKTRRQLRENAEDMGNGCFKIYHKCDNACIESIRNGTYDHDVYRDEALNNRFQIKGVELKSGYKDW
T1 sequence (P03452 18-528 limits assumed): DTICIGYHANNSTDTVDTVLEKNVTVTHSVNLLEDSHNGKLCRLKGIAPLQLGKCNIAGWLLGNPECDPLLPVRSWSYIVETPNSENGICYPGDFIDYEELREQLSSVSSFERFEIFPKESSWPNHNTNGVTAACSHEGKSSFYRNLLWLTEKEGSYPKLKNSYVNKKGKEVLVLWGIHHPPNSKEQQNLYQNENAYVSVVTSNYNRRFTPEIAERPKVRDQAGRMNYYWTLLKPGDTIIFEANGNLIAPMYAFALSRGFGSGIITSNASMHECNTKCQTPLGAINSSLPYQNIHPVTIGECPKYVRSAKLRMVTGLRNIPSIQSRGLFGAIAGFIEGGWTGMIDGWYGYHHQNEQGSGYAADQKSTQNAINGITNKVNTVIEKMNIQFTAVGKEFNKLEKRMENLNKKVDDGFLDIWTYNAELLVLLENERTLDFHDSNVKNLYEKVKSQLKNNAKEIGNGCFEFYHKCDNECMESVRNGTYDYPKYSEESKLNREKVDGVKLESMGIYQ
Chain of H4N6 A/duck/Czechoslovakia/1956 HA (P19696 17-527 limits assumed): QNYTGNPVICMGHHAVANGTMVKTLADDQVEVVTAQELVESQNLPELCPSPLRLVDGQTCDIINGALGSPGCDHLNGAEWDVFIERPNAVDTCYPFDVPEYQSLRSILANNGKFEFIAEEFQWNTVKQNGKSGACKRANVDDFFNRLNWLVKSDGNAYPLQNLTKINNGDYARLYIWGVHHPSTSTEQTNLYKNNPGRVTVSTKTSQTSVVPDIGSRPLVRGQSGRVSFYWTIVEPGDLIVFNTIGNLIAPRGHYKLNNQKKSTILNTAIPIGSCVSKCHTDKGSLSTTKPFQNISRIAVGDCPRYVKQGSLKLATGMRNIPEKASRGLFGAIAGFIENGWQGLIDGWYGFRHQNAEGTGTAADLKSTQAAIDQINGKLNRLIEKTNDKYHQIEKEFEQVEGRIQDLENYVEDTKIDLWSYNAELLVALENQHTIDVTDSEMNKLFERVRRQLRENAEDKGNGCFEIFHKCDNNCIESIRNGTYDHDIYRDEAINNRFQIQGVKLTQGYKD
Chain of H10N7 A/chicken/Germany/N/1949 HA (P12581 17-524 limits assumed): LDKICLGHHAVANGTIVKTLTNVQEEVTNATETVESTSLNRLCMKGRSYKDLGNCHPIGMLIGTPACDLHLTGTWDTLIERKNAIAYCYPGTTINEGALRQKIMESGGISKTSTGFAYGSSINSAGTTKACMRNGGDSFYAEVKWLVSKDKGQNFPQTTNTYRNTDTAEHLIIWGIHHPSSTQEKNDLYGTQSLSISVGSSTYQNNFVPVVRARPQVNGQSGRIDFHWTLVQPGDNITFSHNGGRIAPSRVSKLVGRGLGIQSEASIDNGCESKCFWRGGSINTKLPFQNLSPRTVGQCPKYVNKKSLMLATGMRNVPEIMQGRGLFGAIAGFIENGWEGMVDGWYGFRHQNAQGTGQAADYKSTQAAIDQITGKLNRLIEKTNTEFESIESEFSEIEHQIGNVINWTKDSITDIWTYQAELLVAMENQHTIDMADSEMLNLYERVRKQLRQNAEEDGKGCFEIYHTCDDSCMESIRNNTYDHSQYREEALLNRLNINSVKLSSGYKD

CSCC[C@@H]1NC(=O)CNC(=O)CNC(=O)[C@H](C)NC(=O)[C@H](C(C)C)NC(=O)CNC(=O)[C@H](CC(C)C)NC(=O)[C@@H]2CCCN2C(=O)[C@H](CC(=O)O)NC(=O)[C@H](CCC(=O)O)NC(=O)[C@H](Cc2ccc(O)cc2)NC(=O)[C@H](CC(C)C)NC(=O)[C@H](CO)NC(=O)[C@H](C(C)C)NC(=O)[C@H]2CCCN2C(=O)[C@@H]2CCCN2C(=O)[C@H](Cc2ccc(O)cc2)NC(=O)[C@H](C(C)C)NC(=O)CNC1=O [CP1]
IC50 [1]: 55 nM | KD [2]: N.B. | IC50 [3]: 840 ± 130 nM | KD [4]: N.B. | faster koff rate against H5 versus H1 HA [5]: 14 fold | IC50 [6]: 52 ± 20 nM | Binding against group 2 or influenza B HAs in SPR [7]: no binding | KD [8]: N.B. | improvement in binding affinity versus linear peptide LP1 [9]: 60 fold | Kd ([9]; read-out: KD): 54 nM | Kd ([9]; read-out: KD by SPR): 50 nM | Kd [10]: 2300 nM | IC50 [11]: 49 nM and 50 nM | KD [12]: N.B. | Kd [13]: 23 nM | KD [14]: N.B. | Kd [15]: 1100 nM | Kd (H2N2 A/Adachi/2/1957 HA): > 1000 nM | half-life / residence time t1/2 (range over HAs) [16]: 5 to 46 s | slower dissociation (koff) compared to LP1 [16]: 9- to 180 fold | Kd [17]: 128 nM | Kd [18]: > 1000 nM | Neutralization activity against H5N1 virus (in words) [19]: modest activity | Kd [20]: 91 nM | KD [21]: N.B. | efflux ratio ([22]; LLC-PK1, Efflux ratio BA/AB, LLC-MDR1, + 5 µM GF120918): 1.36 | efflux ratio ([22]; LLC-PK1, Efflux ratio BA/AB, LLC-MDR1, no inhibitor): 1.57 | efflux ratio ([22]; LLC-PK1, Efflux ratio, text: LLC-parent and LLC-MDR1, in the presence and absence of elacridar (GF120918)): < 2 | Papp A→B ([22]; + 5 µM GF120918): 0.23 ± 0.04 ×10⁻⁶ cm/s | Papp A→B ([22]; no inhibitor): 0.21 ± 0.03 ×10⁻⁶ cm/s | Papp B→A ([22]; + 5 µM GF120918): 0.32 ± 0.02 ×10⁻⁶ cm/s | Papp B→A ([22]; no inhibitor): 0.33 ± 0.08 ×10⁻⁶ cm/s | improvement in binding in AlphaLISA versus LP1 [23]: 60- to 440 fold | IC50 ([23]; read-out: IC50 in AlphaLISA (range over HAs)): 52 to 840 nM | KD [24]: N.B. | Protection of HA from low pH-induced conversion to trypsin-susceptible conformation [25]: inhibits the conversion of H1/PR8 HA to the post-fusion conformation | KD [26]: N.B. | Kd [27]: 101 nM | KD [28]: N.B. | KD [29]: N.B. | recovery ([30]; LLC-PK1): 92.9% | efflux ratio ([30]; + 5 µM GF120918): 2.97 | efflux ratio ([30]; no inhibitor): 2.55 | Papp B→A ([30]; + 5 µM GF120918): 0.22 ± 0.12 ×10⁻⁶ cm/s | Papp B→A ([30]; no inhibitor): 0.19 ± 0.09 ×10⁻⁶ cm/s | Papp A→B ([30]; LLC-PK1, pH 7.4): 0.07 ± 0.01 ×10⁻⁶ cm/s
